Target: USP7 (Homo sapiens, UniProt Q93009)
Test: HA-Ub-VS labeling of active DUBs in HCT116 cell lysates
Format: biochemical
Parameters: endogenous in cells; host or cells: HCT116 (inducible USP7 shRNA line) cell lysate
Settings: NEM 5 mM
Source text: The C-terminally modified vinyl sulfone derivative of ubiquitin, UbVS, was clearly helpful for a direct visualization of active DUBs in cells. This tool, which binds covalently to the cysteine active site of deubiquitinating enzymes, was successfully applied to discover and characterize novel ubiquitin/ubiquitin-like proteases and to profile active deubiquitinating enzymes in normal, virus-infected, and malignant cells (Borodovsky et al., Chem Biol 2002, 9, 1149-1159, Hemelaar et al., Mol Cell Biol 2004, 24, 84-95, Ovaa et al., Proc Natl Acad Sci USA 2004 101, 2253-2258).
The HA-Ub-VS probe (Hemagglutin tag-Ubiquitin-Vinyl Sulfone) was used in this study to directly visualize the activity of all deubiquitinating enzymes from cell lysates. This tool was used to evaluate the activity/specificity of our small molecule compounds on USP7 relative to all deubiquitinating enzymes active in physiological conditions.
Inducible USP7 shRNA HCT116 cells (previously treated with or without Doxycycline (2 μg/ml) for 4 days) as well as HEK293 cells were harvested and lysed on ice with a non denaturating buffer containing Tris pH 7.4, 50 mM; NaCl, 150 mM; MgCl2, 5 mM; EDTA, 0.5 mM; DTT, 2 mM; ATP, 2 mM; NP40, 0.5% and glycerol, 10%. Samples were incubated at 4° C. for 1 hour and clarified. Proteins were then quantified by Bradford method (Bio-Rad Protein Assay). 25 μg of proteins from native cell lysates were treated with compounds of examples 14 and 5 (from 100 μM to 3 μM) or with NEM (N-Ethylmaleimide, a thiol-reactive compound, 5 mM) for 2 hours at room temperature. The ubiquitin labeling reaction was initiated by the addition of HA-Ub-VS (8 μg/ml) in labeling buffer (Tris pH 7.6, 50 mM; MgCl2, 5 mM; EDTA, 0.5 mM; DTT, 2 mM; ATP, 2 mM; sucrose, 250 mM) and incubated at room temperature for 30 min. Samples were next heated at 100° C. for 10 minutes and briefly sonicated. They were resolved by SDS-polyacrylamide gel electrophoresis (SDS-PAGE), transferred to a nitrocellulose membrane and probed with antibodies against USP7 (Bethyl Lab, A300-034A), HA (BabCO, MMS-101P), and actin (Sigma, A2066). Horseradish peroxidase (HRP)-conjugated anti-mouse (Jackson Laboratories, 115-035-003) or HRP-conjugated anti-rabbit (Cell Signaling, 7074) antibodies were used as secondary antibodies. Signals were detected by enhanced chemiluminescence (ECL; Amersham) according to the reagent manufacturer's instructions.

Sequence of USP7 (Q93009 whole entry): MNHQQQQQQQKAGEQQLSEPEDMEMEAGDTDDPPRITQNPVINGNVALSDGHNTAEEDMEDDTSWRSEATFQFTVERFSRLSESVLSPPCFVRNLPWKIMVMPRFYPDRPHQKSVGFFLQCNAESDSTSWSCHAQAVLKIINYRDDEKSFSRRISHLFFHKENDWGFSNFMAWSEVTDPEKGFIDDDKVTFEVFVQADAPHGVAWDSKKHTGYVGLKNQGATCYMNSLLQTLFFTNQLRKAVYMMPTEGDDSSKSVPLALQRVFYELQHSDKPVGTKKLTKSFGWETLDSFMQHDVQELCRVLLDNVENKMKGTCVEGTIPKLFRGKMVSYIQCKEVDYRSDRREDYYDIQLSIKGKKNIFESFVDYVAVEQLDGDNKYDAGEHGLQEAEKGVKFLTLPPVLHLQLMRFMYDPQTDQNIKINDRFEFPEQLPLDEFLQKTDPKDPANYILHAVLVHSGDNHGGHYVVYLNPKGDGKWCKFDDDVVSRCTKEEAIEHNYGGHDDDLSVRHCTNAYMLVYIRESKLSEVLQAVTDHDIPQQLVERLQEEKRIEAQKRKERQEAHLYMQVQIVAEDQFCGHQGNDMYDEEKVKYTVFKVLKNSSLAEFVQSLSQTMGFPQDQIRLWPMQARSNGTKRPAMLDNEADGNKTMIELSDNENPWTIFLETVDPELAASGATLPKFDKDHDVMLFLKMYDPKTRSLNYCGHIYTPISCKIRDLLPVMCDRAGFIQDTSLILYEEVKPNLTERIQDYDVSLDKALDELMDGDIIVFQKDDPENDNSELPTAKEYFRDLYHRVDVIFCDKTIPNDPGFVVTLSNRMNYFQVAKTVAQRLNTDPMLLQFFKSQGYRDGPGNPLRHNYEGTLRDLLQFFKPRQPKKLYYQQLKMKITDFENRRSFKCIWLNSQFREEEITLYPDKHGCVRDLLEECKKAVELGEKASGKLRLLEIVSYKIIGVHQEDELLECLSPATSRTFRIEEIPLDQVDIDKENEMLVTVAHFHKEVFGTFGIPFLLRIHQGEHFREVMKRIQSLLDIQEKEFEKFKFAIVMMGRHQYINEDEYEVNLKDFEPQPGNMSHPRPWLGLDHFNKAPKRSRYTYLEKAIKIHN

Compound: CCN1C(=O)C=CC1=O [NEM, N-Ethylmaleimide, reference compound]
- HA-Ub-VS labeling of active DUBs: inhibited

Reference: patent publication US20110177105A1, “Novel Selective Inhibitors of Ubiquitin Specific Protease 7, the Pharmaceutical Compositions Thereof and Their Therapeutic Applications” (priority 2010, published 2011)
